In US20100298141A1, “SUBSTITUTED PYRIDINE N-OXIDE HERBICIDES” (E. I. DU PONT DE NEMOURS AND COMPANY, priority 2007, published 2010):

How the values were obtained:
barnyardgrass [1] = experiment: Test A pre-/postemergence greenhouse test; format: in vivo, Echinochloa crus-galli; details: for Barnyardgrass plant response rating: 0 to 100 scale
Procedure, shortened: (§1)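 Seeds sown in a loam soil–sand blend got a preemergence directed soil spray of compound in a non-phytotoxic solvent mixture containing surfactant. Postemergence sprays of the same formulation went at the same time onto plants 2–10 cm tall at the one- to two-leaf stage. Injury was scored visually against untreated controls after about ten days in the greenhouse.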

crabgrass [2] = experiment: Test A pre-/postemergence greenhouse test; format: in vivo, Digitaria sanguinalis; details: for Crabgrass, Large plant response rating: 0 to 100 scale
Procedure, shortened: as §1

velvetleaf = experiment: Test A pre-/postemergence greenhouse test; format: in vivo, Abutilon theophrasti; details: for Velvetleaf plant response rating: 0 to 100 scale
Procedure, shortened: as §1

corn [3] = experiment: Test A pre-/postemergence greenhouse test; format: in vivo, Zea mays; details: for Corn plant response rating: 0 to 100 scale
Procedure, shortened: as §1

green foxtail = experiment: Test C pre-/postemergence test; format: in vivo, Setaria viridis; details: Preemergence
Procedure, shortened: (§2)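 Seeds were planted and treated preemergence with test chemical in a non-phytotoxic solvent mixture containing surfactant. Postemergence applications of the same formulation went onto plants 2 to 18 cm tall (1- to 4-leaf stage). A dash marks no test result.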

Italian ryegrass = experiment: Test C pre-/postemergence test; format: in vivo, Lolium multiflorum; details: Preemergence
Procedure, shortened: as §2

bermudagrass = experiment: Test C pre-/postemergence test; format: in vivo, Cynodon dactylon
Procedure, shortened: as §2

corn [4] = experiment: Test C pre-/postemergence test; format: in vivo, Zea mays
Procedure, shortened: as §2

crabgrass [5] = experiment: Test C pre-/postemergence test; format: in vivo, Digitaria sanguinalis; details: Preemergence
Procedure, shortened: as §2

Goosegrass = experiment: Test C pre-/postemergence test; format: in vivo, Eleusin indica; details: Preemergence
Procedure, shortened: as §2

johnsongrass = experiment: Test C pre-/postemergence test; format: in vivo, Sorghum halepense; details: Preemergence
Procedure, shortened: as §2

yellow nutsedge = experiment: Test C pre-/postemergence test; format: in vivo, Cyperus esculentus; details: Preemergence
Procedure, shortened: as §2

pigweed = experiment: Test C pre-/postemergence test; format: in vivo, Amaranthus retroflexus; details: Preemergence
Procedure, shortened: as §2

soybean = experiment: Test C pre-/postemergence test; format: in vivo, Glycine max; details: 62 g ai/ha, Preemergence; scale 0 to 100
Procedure, shortened: as §2

umbrella sedge = experiment: Test C flooded paddy test; format: in vivo, Cyperus difformis; details: Flood
Procedure, shortened: (§3)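 Visual injury ratings against untreated controls, taken 13 to 15 days after compound was added to paddy water standing 3 cm above the soil.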

duck salad = experiment: Test C flooded paddy test; format: in vivo, Heteranthera limosa; details: Flood
Procedure, shortened: as §3

barnyardgrass [6] = experiment: Test C flooded paddy test; format: in vivo, Echinochloa crus-galli; details: Flood
Procedure, shortened: as §3

[7] = Postemergence, 125 g ai/ha, 0 is no effect, 100 is complete control
[8] = Postemergence, 500 g ai/ha, 0 is no effect, 100 is complete control
[9] = Preemergence, 125 g ai/ha, 0 no effect, 100 complete control
[10] = Preemergence, 500 g ai/ha, 0 to 100 scale where 0 is no effect and 100 is complete control
[11] = 31 g ai/ha, scale 0 to 100 (0 no effect, 100 complete control)
[12] = Preemergence, 31 g ai/ha, scale 0 to 100 (0 no effect, 100 complete control)
[13] = preemergence, 125 g ai/ha, scale 0 (no effect) to 100 (complete control)
[14] = 62 g ai/ha, scale 0 to 100, 0 no effect, 100 complete control, 13 to 15 days
[15] = 125 g ai/ha, scale 0 to 100, 0 no effect, 100 complete control, 13 to 15 days
[16] = 250 g ai/ha, scale 0 to 100, 0 no effect, 100 complete control, 13 to 15 days

CC(c1c(C(F)(F)F)nn(C)c1OCC(F)(F)F)S(=O)(=O)c1cccc[n+]1[O-] (racemic) [Compound 33]
100: Barnyardgrass plant response rating (barnyardgrass [1]; [8]) | Barnyardgrass plant response rating (barnyardgrass [1]; [9]) | Plant response rating, Barnyardgrass (barnyardgrass [1]; [10]) | Plant response rating, Crabgrass, Large (crabgrass [2]; [10]) | Plant response rating, Velvetleaf (velvetleaf; [10]) | Plant response rating (0 to 100), Foxtail, Green (green foxtail; 250 g ai/ha) | Bermudagrass plant response rating (bermudagrass; 62 g ai/ha, Preemergence, scale 0 to 100 (0 no effect, 100 complete control)) | Plant response rating, Bermudagrass (bermudagrass; [12]) | Plant response rating (0 to 100), Bermudagrass (bermudagrass; Preemergence, 250 g ai/ha) | Bermudagrass plant response rating (bermudagrass; [13]) | Crabgrass, Large plant response rating (crabgrass [5]; 62 g ai/ha, scale 0 to 100) | Plant response rating, Crabgrass, Large (crabgrass [5]; [11]) | Plant response rating (0 to 100), Crabgrass, Large (crabgrass [5]; 250 g ai/ha) | Goosegrass plant response rating (Goosegrass; 62 g ai/ha, scale 0 to 100) | Plant response rating, Goosegrass (Goosegrass; [11]) | Plant response rating (0 to 100), Goosegrass (Goosegrass; 250 g ai/ha) | Johnsongrass plant response rating (johnsongrass; 62 g ai/ha, scale 0 to 100) | Plant response rating (0 to 100), Johnsongrass (johnsongrass; 250 g ai/ha) | Nutsedge, Yellow plant response rating (yellow nutsedge; 62 g ai/ha, scale 0 to 100) | Plant response rating, Nutsedge, Yellow (yellow nutsedge; [11]) | Pigweed plant response rating (pigweed; 62 g ai/ha, scale 0 to 100) | Plant response rating, Pigweed (pigweed; [11])
75: Foxtail, Green plant response rating (green foxtail; 62 g ai/ha, scale 0 to 100) | Plant response rating, Foxtail, Green (green foxtail; [11])
30: Plant response rating, Barnyardgrass (barnyardgrass [6]; [11]) | Plant response rating, Barnyardgrass (barnyardgrass [6]; [14]) | Plant response rating, Barnyardgrass (barnyardgrass [6]; [15])
60: Velvetleaf plant response rating (velvetleaf; [8]) | Plant response rating, Corn (corn [4]; [12]) | Soybean plant response rating (soybean)
95: Plant response rating, Sedge, Umbrella (umbrella sedge; [15]) | Plant response rating, Sedge, Umbrella (umbrella sedge; [16]) | Plant response rating, Ducksalad (duck salad; [16])
45: Plant response rating, Ducksalad (duck salad; [15])
50: Corn plant response rating (corn [3]; [7])
90: Crabgrass, Large plant response rating (crabgrass [2]; [7]) | Crabgrass, Large plant response rating (crabgrass [2]; [8]) | Crabgrass, Large plant response rating (crabgrass [2]; [9]) | Corn plant response rating (corn [4]; 62 g ai/ha, Preemergence, scale 0 to 100) | Plant response rating, Sedge, Umbrella (umbrella sedge; [14])
98: Plant response rating (0 to 100), Corn (corn [4]; Preemergence, 250 g ai/ha) | Corn plant response rating (corn [4]; [13]) | Plant response rating, Johnsongrass (johnsongrass; [11])
70: Barnyardgrass plant response rating (barnyardgrass [1]; [7]) | Velvetleaf plant response rating (velvetleaf; [9]) | Corn plant response rating (corn [3]; [8]) | Corn plant response rating (corn [3]; [9]) | Plant response rating, Ryegrass, Italian (Italian ryegrass; [11])
40: Velvetleaf plant response rating (velvetleaf; [7])
80: Plant response rating, Corn (corn [3]; [10]) | Ryegrass, Italian plant response rating (Italian ryegrass; 62 g ai/ha, scale 0 to 100) | Plant response rating, Sedge, Umbrella (umbrella sedge; [11]) | Plant response rating, Barnyardgrass (barnyardgrass [6]; [16])
0: Plant response rating, Ducksalad (duck salad; [11]) | Plant response rating, Ducksalad (duck salad; [14])
